One assay concerns microtubules. As to conditions: cited from earlier work.
Assay [1] relates to MCF-7 breast cancer cells. The assay can be described thus: Viability of MCF-7 breast cancer cells, dose-dependent IC50. In kind it is cell-based. The method, then: To test the therapeutic efficacy of the formulation of PTD-ABD-17-AAG in MCF-7 breast cancer cells, the IC50 value was determined in a dose-dependent manner. The IC50 value is a measure of how effective a drug or therapeutic is and is defined as the concentration required to inhibit a biological process or component of a biological process (e.g., enzyme, cell, cell receptor) in half. The PTD-ABD-17-AAG was prepared as described above (Example 1) and administered to cancer cells. MCF-7 cells were exposed to one of the following formulations: 1) PTD-ABD-17-AAG; 2) 17-AAG; or 3) PTD-ABD.

A further assay relates to breast cancer cells. As to the kind of experiment: Short-term (4 hours) treatment of breast cancer cells, dose-dependent IC50. In kind it is cell-based. As to conditions: breast cancer cells exposed for 4 hours. The method, then:
To examine whether the improved cellular uptake of 17-AAG by the PTD-ABD leads to enhanced efficacy of 17-AAG, breast cancer cells were exposed to 17-AAG or the PTD-ABD-17-AAG for 4 hours in a dose-dependent manner. […] Due to the facilitated uptake of 17-AAG bound to the PTD-ABD, the short-term treatment of 17-AAG at low concentrations can increase the cellular concentration of 17-AAG, which results in the enhanced anti-cancer efficacy of 17-AAG. Free 17-AAG was not sufficiently internalized into cells during the short incubation time because of the poor uptake kinetics of free 17-AAG.

Another assay deals with MCF-7 cells. The assay can be described thus: Uptake kinetics of FITC-GM into MCF-7 cells. As to conditions: 2 hours post-treatment. In kind it is cell-based. The method, then: Finally, 10 μg/ml of GM was sufficient to achieve internalization into 100% of the cell population when delivered by the PTD-ABD protein (FIG. 3c).

Consider `CC(=O)O[C@H]1C(=O)[C@@]2(C)[C@H]([C@H](OC(=O)c3ccccc3)[C@]3(O)C[C@H](OC(=O)[C@H](O)[C@@H](NC(=O)c4ccccc4)c4ccccc4)C(C)=C1C3(C)C)[C@]1(OC(C)=O)CO[C@@H]1C[C@@H]2O` [PTX, paclitaxel], for which the “binding affinity Ka to microtubules” value with microtubules was ~6e+07 M⁻¹.
With `C=CCNC1=C2C[C@@H](C)C[C@H](OC)[C@H](O)[C@@H](C)/C=C(\C)[C@H](OC(N)=O)[C@@H](OC)/C=C\C=C(/C)C(=O)NC(=CC1=O)C2=O` [17-AAG, 17-allylamino-17-demethoxygeldanamycin], inhibition in assay [1] was half-maximal at 15 µM (IC50). Also, the IC50 value result with breast cancer cells is reported as “approximately 25 μg/ml”.
On to `COC1=C2C[C@@H](C)C[C@H](OC)[C@H](O)[C@@H](C)/C=C(\C)[C@H](OC(N)=O)[C@@H](OC)/C=C\C=C(/C)C(=O)NC(=CC1=O)C2=O` [GM, Geldanamycin], for which the “cell population positive to FITC (GM internalized)” value in the assay on MCF-7 cells amounted to 60%.

Source of the values: US10898582B2, “Bi-functional allosteric protein-drug molecules for targeted therapy” (UNIVERSITY OF UTAH RESEARCH FOUNDATION, priority 2014, dated 2021).
